According to US7647217B2, “Structure of the farnesoid X receptor ligand binding domain and methods of use therefor” (The Salk Institute for Biological Studies, priority 2002, dated 2010):

Experiments:
[1] = target: T1, FXR ligand-binding domain (Homo sapiens, UniProt Q96RI1); assay: FRET-based coactivator (SRC-1 peptide) binding assay; assay type: biochemical; conditions: for EC50: agonist mode, 8 nM GST-FXR LBD, 16 nM SRC-1 peptide, read-out: EC50 of SRC-1 peptide recruitment
T1 construct: made in house; host or cells: E. coli BL21 (DE3)
T1 sequence (Q96RI1 258-486): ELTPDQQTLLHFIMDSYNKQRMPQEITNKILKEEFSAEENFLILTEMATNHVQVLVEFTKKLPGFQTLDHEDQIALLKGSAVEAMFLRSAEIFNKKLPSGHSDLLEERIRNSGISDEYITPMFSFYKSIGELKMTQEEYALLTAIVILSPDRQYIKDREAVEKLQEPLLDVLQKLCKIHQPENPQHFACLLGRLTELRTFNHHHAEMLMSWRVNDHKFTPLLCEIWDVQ
Method: Increasing amounts of the compounds were added as indicated. Binding reactions contained 8 nM Europium labeled GST-FXR ligand-binding domain fusion protein and 16 nM allophycocyanin-labeled SRC-1 receptor binding peptide. Results are expressed at 1000*(665 nm/615 nm).
Standard PCR amplifications of the LBD of human FXR (residues 248 to 476) and sub-cloning techniques were used to generate pGEX Glutathione-s-transferase (GST) and pHIS8-3 (Jez et al. (2000) Dissection of malonyl-coenzyme A decarboxylation from polyketide formation in the reaction mechanism of a plant polyketide synthase. Biochemistry 39, 890-902) prokaryote protein expression vectors. DNA fragments containing hFXR aa248 to 476 were cloned into the BamHI site of pGEX-hFXR, while the cloning sites NcoI and BamHI sites were used in pHIS8-3.
To determine if the compounds identified as ligands could promote the association of FXR with co-activators in vitro, a fluorescence resonance energy transfer (FRET)-based coactivator binding assay was employed (see, for example, Makishima et al. (1999), supra; Urizar et al. (2002). A natural product that lowers cholesterol as an antagonist ligand for FXR. Science. 296(5573), 1703-6). This assay relies on an agonist-induced interaction between the nuclear receptor and its coactivator bringing two fluorogenic partners together resulting in the nuclear receptor ligand-dependent FRET.

[2] = system: hPPARαγδ; assay: GAL4 chimeric NHR cross-reactivity assay; assay type: cell-based, human; conditions: 10 μM
Method: FIGS. 3A-3E collectively show the results of ligand activation of CV-1 cells co-transfected with a luciferase reporter gene with a variety of receptor expression constructs. […] FIGS. 3C-3E show the results of CV-1 cells transiently transfected with the indicated reporter constructs, treated with either DMSO or 10 μM of the compounds fexaramine (3C), fexarine (3D), fexarene (3E). Reporter activity was normalized to the internal control and the data plotted as fold activation relative to untreated cells. All transfections contained CMX-βgal as an internal control.
The expression plasmids pCMX, pCMX-LacZ, pCMX-mFXRFL, pCMX-hRXRFL, pCMX-GALDBD-rFXRLBD and other pCUX-GALDBD-NR LBDs (hRXRα, hPPARαγδ, mPXR, hPXR, hLXRα, HTRβ, hRARβ, mCAR, mERR3 and hVDR) have been described elsewhere (Blumberg et al. (1998). SXR, a novel steroid and xenobiotic-sensing nuclear receptor. Genes Dev. 12(20), 3195-205). The reporter plasmids pMH2004-TK-luc, pTKECRE*6-luc, pTKER-8*2-luc and pMRP-2-luc also have been described elsewhere. The hPLTP-luc promoter was kindly provided by Dr Dennis Dowhan and the hIBABP-luc promoter was created from a plasmid provided by Dr Philippe Besnard.
Cell-based transcriptional activation assays using chimeric nuclear hormone receptor (NHR) constructs were established to measure the selectivity of the compounds to FXR relative to other NHRs (Forman et al. (1995). Identification of a nuclear receptor that is activated by farnesol metabolites. Cell 81, 687-693). These assays used fusion proteins with the yeast GAL4 DNA binding domain connected to the ligand-binding domain (LBD) of NHRs. These constructs were co-transfected with a thymidine kinase C minimal promoter reporter vector containing four copies of the GAL4 binding site. Titration experiments were then performed using the identified compounds. […] Addition of RXR had no effect on the activation potential of fexaramine, fexarine, fexarene in this assay.
No activity was observed on other chimeric NHR constructs including hRXRα, hPPARαγδ, mPXR, hPXR, hLXRα, hTRβ, hRARβ, mCAR, mERR3 and hVDR (see FIGS. 3C-3E).

[3] = system: IBABP mRNA in HT29-FXRFL cells; assay: Northern blot of IBABP mRNA induction in HT29 stable cell lines; assay type: cell-based, human; conditions: for induction of IBABP mRNA in control lines: HT29-BABE or HT29-FXR-AF2 cell lines; for concentration of maximal activation of the IBABP gene / induction of IBABP mRNA: HT29-FXRFL, overnight treatment
Method: 20 μg total RNA was isolated using Trizol (Invitrogen) and used for Northern blot analysis. cDNA probe for human IBABP was prepared and hybridized to the blot. Blots were normalized by β-actin expression.
HepG2 or HT29-derived cell lines were typically cultured in medium containing superstripped FBS for 24 hr before the addition of a ligand or DMSO (vehicle) for an additional 24-48 hr. Total RNA was isolated using TRIzol reagent and was resolved (10 μg/lane) on a 1% agarose, 2.2 M formaldehyde gel, transferred to a nylon membrane (Hybond N^+; Amersham Biosciences, Inc.), and cross-linked to the membrane with UV light.
cDNA probes were radiolabeled with [α-^32P]dCTP using the highprime labeling kit (Amersham Biosciences, Inc.). Membranes were hybridized using the QuikHyb hybridization solution (Stratagene, La Jolla, Calif.) according to the manufacturer's protocol. Blots were normalized for variations of RNA loading by hybridization to a control probe, either, 18 S ribosomal cDNA, or the ribosomal protein 36B4. The RNA levels were quantitated using a PhosphorImager (ImageQuant software; Molecular Dynamics, Inc., Sunnyvale, Calif.) in addition to being exposed to X-ray film.
Human colon cells HT29 (FXR null until differentiated) were infected with retroviral vectors that expressed either FXR constructs and the puromycin-resistant gene or the puromycin-resistant gene alone. Puromycin resistant cells were isolated and pooled cell populations were propagated that harbored either the vector alone (HT29-BABE), overexpressed FXR full length (HT29-FXRFL), a non-functional FXR truncated at the AF2 region (HT29-FXR-AF2), or a constitutively active FXR that has the VP16 activation domain fused N-terminal of the protein (HT29-VP16-FXR). Confirmation of the successful establishment of the different stable cell lines was established via northern blot analysis of FXR message levels in the cells (see FIG. 4A). […]
The ability of the novel compounds identified herein to induce IBABP gene expression in this cell system was also examined. Total RNA from HT29 stable cells treated overnight with fexaramine, fexarine and fexarene was probed for IBABP gene expression (see FIG. 4D).

Row | SMILES | EC50 [1] | activity on chimeric hPPARαγδ constructs [2] | induction of IBABP mRNA in control lines [3] | concentration of maximal activation of the IBABP gene [3] | induction of IBABP mRNA [3] | recruitment of SRC-1 peptide [1]
1 | COC(=O)/C=C/c1cccc(N(Cc2ccc(-c3ccc(N(C)C)cc3)cc2)C(=O)C2CCCCC2)c1 [fexaramine] | 255 nM | No activity | No induction | 1 µM | induced expression of the IBABP mRNA | –
2 | CC(C)c1onc(-c2c(Cl)cccc2Cl)c1COc1ccc(/C=C/c2cccc(C(=O)O)c2)c(Cl)c1 [GW4064, reference compound] | – | – | No induction | 1 µM | robust concentration dependent induction | –
3 | COC(=O)/C=C/c1cccc(N(Cc2ccc(-c3ccccc3OC)cc2)C(=O)C(C)C)c1 [SRI-1] | – | – | – | – | – | Weaker recruitment
4 | COC(=O)/C=C/c1cccc(N(Cc2ccc(-c3ccc4c(c3)OCO4)cc2)C(=O)C2CCCCC2)c1 [fexarine] | 222 nM | No activity | No induction | 1 µM | induced expression of the IBABP mRNA | –
5 | COC(=O)/C=C/c1cccc(N(Cc2ccc(-c3ccc(C(C)(C)C)cc3)cc2)C(=O)C(C)C)c1 [SRI-2] | – | – | – | – | – | Weaker recruitment
6 | COC(=O)/C=C/c1cccc(N(Cc2ccc(/C=C/c3ccccc3)cc2)C(=O)C2CCCCC2)c1 [fexarene] | ~255 nM | No activity | No induction | 1 µM | induced expression of the IBABP mRNA | –
